Measurements published in US8501750B2, “Heterocyclic compound and use thereof” (Takeda Pharmaceutical Company Limited, priority 2007, dated 2013).
Structures can show the parent of a compound that is named as a salt. Where two headings read alike, the source gives them in different places.

How the values were obtained:
AT1 receptor = AT1 receptor (Homo sapiens (Human), UniProt P30556); experiment: AT1 receptor binding inhibitory action
PPARγ = PPARγ (Homo sapiens (Human), UniProt P37231); experiment: PPARγ activating action (luciferase reporter in PPARγ:RXRα:4ERPP/CHO-K1 cells); assay type: cell-based; conditions: CHO-K1, 24 h, read-out: PPARγ activating action (activation % (1 μM))
Experimental: Then the medium was removed from the 96-well half area white plate, 45 μl of Ham's F12 medium containing 0.1% fatty acid-free bovine serum albumin (BSA) and 5 μl of test compound were added, and the cells were cultured in a CO2 gas incubator at 37° C. for 1 day. The medium was removed and 20 μl of PicaGene 7.5 [manufactured by Dainippon Ink and Chemicals Corporation, Japan] diluted 2-fold with HBSS (HANKS' BALANCED SALT SOLUTION) [manufactured by BIO WHITTAKER, USA] was added. After stirring, the luciferase activity was determined using 1420 ARVO Multilabel Counter [manufactured by PerkinElmer, USA]. […] A CHO-K1 cell cultured in a 150 cm^2 cell culture flask [manufactured by Corning Costar Corporation, USA] containing Ham's F12 medium [manufactured by INVITROGEN, USA] supplemented with 10% fetal bovine serum [manufactured by INVITROGEN, USA] was scraped by treating with 0.5 g/L trypsin-0.2 g/L EDTA (ethylenediaminetetraacetic acid) [manufactured by Life Technologies, Inc., USA], and then the cell was washed with PBS (Phosphate-buffered saline) [manufactured by INVITROGEN, USA], centrifuged (1000 rpm, 5 minutes) and suspended in PBS. Subsequently, DNA was introduced into the cell under the conditions shown below using GENE PULSER [manufactured by Bio-Rad Laboratories, USA]. […] Subsequently, the cell was transferred into a F12 medium containing 10% fetal bovine serum and cultured for 24 hours, and then the cell was scraped again and centrifuged, and then suspended in Ham's F12 medium containing 10% fetal bovine serum supplemented with 500 μg/ml of Geneticin [manufactured by INVITROGEN, USA] and 250 μg/ml of Zeocin [manufactured by INVITROGEN, USA]. The obtained suspension was diluted to the density of 10^4 cells/ml and inoculated in a 96-well plate [manufactured by Corning Costar Corporation, USA], which was cultured in a CO2 gas incubator at 37° C., whereby obtaining a Geneticin- and Zeocin-resistant transformant.

[1] = test compound 1 μM, luciferase activity relative to control compound X (1 μM) = 100%, non-administration group = 0%

Sequence of AT1 receptor (P30556 whole entry): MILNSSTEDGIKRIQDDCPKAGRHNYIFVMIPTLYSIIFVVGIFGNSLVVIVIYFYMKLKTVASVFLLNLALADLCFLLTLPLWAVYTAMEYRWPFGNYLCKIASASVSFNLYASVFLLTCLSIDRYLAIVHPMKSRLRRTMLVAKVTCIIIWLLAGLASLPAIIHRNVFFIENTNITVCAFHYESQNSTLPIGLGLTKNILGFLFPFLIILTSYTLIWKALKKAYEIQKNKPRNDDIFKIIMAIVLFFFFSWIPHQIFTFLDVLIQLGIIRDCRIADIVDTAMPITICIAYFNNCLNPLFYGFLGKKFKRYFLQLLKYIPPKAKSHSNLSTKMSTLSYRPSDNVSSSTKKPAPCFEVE
Sequence of PPARγ (P37231 29-505): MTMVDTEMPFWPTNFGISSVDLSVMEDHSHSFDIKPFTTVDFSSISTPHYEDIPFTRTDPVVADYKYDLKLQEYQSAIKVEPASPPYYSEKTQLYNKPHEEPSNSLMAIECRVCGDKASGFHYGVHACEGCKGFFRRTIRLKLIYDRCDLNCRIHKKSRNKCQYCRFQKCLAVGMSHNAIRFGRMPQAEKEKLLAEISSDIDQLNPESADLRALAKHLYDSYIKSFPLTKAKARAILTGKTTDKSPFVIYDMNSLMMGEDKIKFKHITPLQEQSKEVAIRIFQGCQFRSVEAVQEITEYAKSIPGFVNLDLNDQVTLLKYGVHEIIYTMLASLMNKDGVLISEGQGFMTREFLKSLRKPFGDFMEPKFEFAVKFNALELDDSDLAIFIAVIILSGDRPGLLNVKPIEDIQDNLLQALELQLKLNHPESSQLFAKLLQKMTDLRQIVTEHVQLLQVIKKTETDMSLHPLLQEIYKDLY
Sequence of PPARγ (P19793 whole entry partner): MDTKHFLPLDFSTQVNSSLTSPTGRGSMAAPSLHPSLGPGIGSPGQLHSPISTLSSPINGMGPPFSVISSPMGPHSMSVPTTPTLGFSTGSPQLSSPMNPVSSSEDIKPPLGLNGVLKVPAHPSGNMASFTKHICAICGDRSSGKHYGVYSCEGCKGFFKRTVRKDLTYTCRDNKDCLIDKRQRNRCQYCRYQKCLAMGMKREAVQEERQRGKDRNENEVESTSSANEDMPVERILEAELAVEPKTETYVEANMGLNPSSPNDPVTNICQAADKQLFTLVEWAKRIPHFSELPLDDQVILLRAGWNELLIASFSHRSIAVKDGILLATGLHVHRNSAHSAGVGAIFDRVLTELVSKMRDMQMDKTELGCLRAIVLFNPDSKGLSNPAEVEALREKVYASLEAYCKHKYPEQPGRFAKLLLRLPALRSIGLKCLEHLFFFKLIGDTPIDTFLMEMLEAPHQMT

Row | IC50 (AT1 receptor) [nM] | activation at 1 µM (PPARγ; [1]) [%] | SMILES | activation at 1 µM (PPARγ) [%]
1 | 1.6 | 27 | O=c1[nH]c(-c2ccccc2-c2ccc(Cn3c(=O)n(CCc4ccc(Cl)cc4)c(=O)c4cc(CC(F)(F)F)sc43)cc2)no1 [Ex. 58, 3-[2-(4-chlorophenyl)ethyl]-1-{[2′-(5-oxo-4,5-dihydro-1,2,4-oxadiazol-3-yl)biphenyl-4-yl]methyl}-6-(2,2,2-trifluoroethyl)thieno[2,3-d]pyrimidine-2,4(1H,3H)-dione] | –
2 | 1.2 | 58 | Cc1ccc(CCn2c(=O)c3cc(CC(F)(F)F)sc3n(Cc3ccc(-c4ccccc4-c4noc(=O)[nH]4)cc3)c2=O)cc1 [Ex. 59, 3-[2-(4-methylphenyl)ethyl]-1-{[2′-(5-oxo-4,5-dihydro-1,2,4-oxadiazol-3-yl)biphenyl-4-yl]methyl}-6-(2,2,2-trifluoroethyl)thieno[2,3-d]pyrimidine-2,4(1H,3H)-dione] | –
3 | 1 | 42 | O=c1[nH]c(-c2ccccc2-c2ccc(Cn3c(=O)n(CCc4cccc(F)c4)c(=O)c4cc(CC(F)(F)F)sc43)cc2)no1 [Ex. 60, 3-[2-(3-fluorophenyl)ethyl]-1-{[2′-(5-oxo-4,5-dihydro-1,2,4-oxadiazol-3-yl)biphenyl-4-yl]methyl}-6-(2,2,2-trifluoroethyl)thieno[2,3-d]pyrimidine-2,4(1H,3H)-dione] | –
4 | 1.1 | 31 | O=C(Cn1c(=O)c2cc(C3CC3)sc2n(Cc2ccc(-c3ccccc3-c3noc(=O)[nH]3)cc2)c1=O)c1ccc(F)cc1 [Ex. 63, 6-cyclopropyl-3-[2-(4-fluorophenyl)-2-oxoethyl]-1-{[2′-(5-oxo-4,5-dihydro-1,2,4-oxadiazol-3-yl)biphenyl-4-yl]methyl}thieno[2,3-d]pyrimidine-2,4(1H,3H)-dione] | –
5 | 1.5 | 35 | CCc1cc2c(=O)n(CC(=O)c3ccc(OC)cc3F)c(=O)n(Cc3ccc(-c4ccccc4-c4noc(=O)[nH]4)cc3)c2s1 [Ex. 73, 6-ethyl-3-[2-(2-fluoro-4-methoxyphenyl)-2-oxoethyl]-1-{[2′-(5-oxo-4,5-dihydro-1,2,4-oxadiazol-3-yl)biphenyl-4-yl]methyl}thieno[2,3-d]pyrimidine-2,4(1H,3H)-dione] | –
6 | 1 | 27 | CCc1cc2c(=O)n(CC(=O)c3ccc(OC)cc3C)c(=O)n(Cc3ccc(-c4ccccc4-c4noc(=O)[nH]4)cc3)c2s1 [Ex. 76, 6-ethyl-3-[2-(4-methoxy-2-methylphenyl)-2-oxoethyl]-1-{[2′-(5-oxo-4,5-dihydro-1,2,4-oxadiazol-3-yl)biphenyl-4-yl]methyl}thieno[2,3-d]pyrimidine-2,4(1H,3H)-dione] | –
7 | 0.77 | 37 | CCc1cc2c(=O)n(CC(=O)c3ccc(OC)cc3)c(=O)n(Cc3ccc(-c4ccccc4-c4noc(=O)[nH]4)cc3F)c2s1 [Ex. 83, 6-ethyl-1-{[3-fluoro-2′-(5-oxo-4,5-dihydro-1,2,4-oxadiazol-3-yl)biphenyl-4-yl]methyl}-3-[2-(4-methoxyphenyl)-2-oxoethyl]thieno[2,3-d]pyrimidine-2,4(1H,3H)-dione] | –
8 | 1.8 | 62 | CCc1cc2c(=O)n(CCN3CCOCC3)c(=O)n(Cc3ccc(-c4ccccc4-c4noc(=O)[nH]4)cc3F)c2s1 [Ex. 117, 6-ethyl-1-{[3-fluoro-2′-(5-oxo-4,5-dihydro-1,2,4-oxadiazol-3-yl)biphenyl-4-yl]methyl}-3-(2-morpholin-4-ylethyl)thieno[2,3-d]pyrimidine-2,4(1H,3H)-dione] | –
9 | 1.7 | 28 | CCc1cc2c(=O)n(CC(=O)c3ccc(Cl)cc3)c(=O)n(Cc3ccc(-c4ccccc4-c4noc(=O)[nH]4)cc3)c2s1 [Ex. 121, 3-[2-(4-chlorophenyl)-2-oxoethyl]-6-ethyl-1-{[2′-(5-oxo-4,5-dihydro-1,2,4-oxadiazol-3-yl)biphenyl-4-yl]methyl}thieno[2,3-d]pyrimidine-2,4(1H,3H)-dione] | –
10 | 1.6 | 61 | COc1cc(F)ccc1C(=O)Cn1c(=O)c2cc(C3CC3)sc2n(Cc2ccc(-c3ccccc3-c3noc(=O)[nH]3)cc2F)c1=O [Ex. 129, 6-cyclopropyl-3-[2-(4-fluoro-2-methoxyphenyl)-2-oxoethyl]-1-{[3-fluoro-2′-(5-oxo-4,5-dihydro-1,2,4-oxadiazol-3-yl)biphenyl-4-yl]methyl}thieno[2,3-d]pyrimidine-2,4(1H,3H)-dione] | –
11 | 1.6 | 56 | COc1cc(F)ccc1C(=O)Cn1c(=O)c2cc(C3CC3)sc2n(Cc2ccc(-c3ccccc3-c3noc(=O)[nH]3)cc2)c1=O [Ex. 130, 6-cyclopropyl-3-[2-(4-fluoro-2-methoxyphenyl)-2-oxoethyl]-1-{[2′-(5-oxo-4,5-dihydro-1,2,4-oxadiazol-3-yl)biphenyl-4-yl]methyl}thieno[2,3-d]pyrimidine-2,4(1H,3H)-dione] | –
12 | 1.2 | 72 | CCc1cc2c(=O)n(CC(=O)C(C)(C)C)c(=O)n(Cc3ccc(-c4ccccc4-c4noc(=O)[nH]4)cc3)c2s1 [Ex. 131, 3-(3,3-dimethyl-2-oxobutyl)-6-ethyl-1-{[2′-(5-oxo-4,5-dihydro-1,2,4-oxadiazol-3-yl)biphenyl-4-yl]methyl}thieno[2,3-d]pyrimidine-2,4(1H,3H)-dione] | –
13 | 1.7 | 50 | CCc1cc2c(=O)n(CC(=O)C34CC5CC(CC(C5)C3)C4)c(=O)n(Cc3ccc(-c4ccccc4-c4noc(=O)[nH]4)cc3)c2s1 [Ex. 132, 3-[2-(1-adamantyl)-2-oxoethyl]-6-ethyl-1-{[2′-(5-oxo-4,5-dihydro-1,2,4-oxadiazol-3-yl)biphenyl-4-yl]methyl}thieno[2,3-d]pyrimidine-2,4(1H,3H)-dione] | –

Row | SMILES | IC50 (AT1 receptor) [nM] | activation at 1 µM (PPARγ; [1]) [%] | activation at 1 µM (PPARγ) [%]
14 | COc1ccccc1C(=O)Cn1c(=O)c2cc(C3CC3)sc2n(Cc2ccc(-c3ccccc3-c3noc(O)n3)cc2)c1=O [Ex. 99, 6-cyclopropyl-3-[2-(2-methoxyphenyl)-2-oxoethyl]-1-{[2′-(5-oxo-4,5-dihydro-1,2,4-oxadiazol-3-yl)biphenyl-4-yl]methyl}thieno[2,3-d]pyrimidine-2,4(1H,3H)-dione potassium salt] | 1.2 | – | 56
15 | COc1ccc(C(=O)Cn2c(=O)c3cc(C4CC4)sc3n(Cc3ccc(-c4ccccc4-c4noc(O)n4)cc3F)c2=O)cc1 [Ex. 105, 6-cyclopropyl-1-{[3-fluoro-2′-(5-oxo-4,5-dihydro-1,2,4-oxadiazol-3-yl)biphenyl-4-yl]methyl}-3-[2-(4-methoxyphenyl)-2-oxoethyl]thieno[2,3-d]pyrimidine-2,4(1H,3H)-dione potassium salt] | 1 | – | 34
16 | COc1cccc(C(=O)Cn2c(=O)c3cc(C4CC4)sc3n(Cc3ccc(-c4ccccc4-c4noc(O)n4)cc3)c2=O)c1 [Ex. 107, 6-cyclopropyl-3-[2-(3-methoxyphenyl)-2-oxoethyl]-1-{[2′-(5-oxo-4,5-dihydro-1,2,4-oxadiazol-3-yl)biphenyl-4-yl]methyl}thieno[2,3-d]pyrimidine-2,4(1H,3H)-dione potassium salt] | 1.1 | – | 43
17 | CCc1cc2c(=O)n(CC(=O)c3ccccc3OC)c(=O)n(Cc3ccc(-c4ccccc4-c4noc(O)n4)cc3)c2s1 [Ex. 109, 6-ethyl-3-[2-(2-methoxyphenyl)-2-oxoethyl]-1-{[2′-(5-oxo-4,5-dihydro-1,2,4-oxadiazol-3-yl)biphenyl-4-yl]methyl}thieno[2,3-d]pyrimidine-2,4(1H,3H)-dione potassium salt] | 1.4 | – | 64
18 | CCc1cc2c(=O)n(CC(=O)c3ccc(OC)cc3)c(=O)n(Cc3ccc(-c4ccccc4-c4noc(O)n4)cc3C)c2s1 [Ex. 116, 6-ethyl-3-[2-(4-methoxyphenyl)-2-oxoethyl]-1-{[3-methyl-2′-(5-oxo-4,5-dihydro-1,2,4-oxadiazol-3-yl)biphenyl-4-yl]methyl}thieno[2,3-d]pyrimidine-2,4(1H,3H)-dione potassium salt] | 1.8 | – | 38
19 | COc1ccccc1C(=O)Cn1c(=O)c2cc(CC(F)(F)F)sc2n(Cc2c(F)cc(-c3ccccc3-c3noc(O)n3)cc2F)c1=O [Ex. 127, 1-{[3,5-difluoro-2′-(5-oxo-4,5-dihydro-1,2,4-oxadiazol-3-yl)biphenyl-4-yl]methyl}-3-[2-(2-methoxyphenyl)-2-oxoethyl]-6-(2,2,2-trifluoroethyl)thieno[2,3-d]pyrimidine-2,4(1H,3H)-dione potassium salt] | 1.4 | – | 53
